Data set [1] concerns the target T1, E. coli glucosamine synthase GlmS*54 (Escherichia coli, UniProt P17169, A39T/G472S/R250C).
T1 construct: made in house; host or cells: E. coli 7107-18 (printed '7017-18'; T7-glmS*54 integrated at galK) and strains derived from it; crude extract
In words: Effects of phosphorylated sugars on glucosamine synthase. It is filed as biochemical. The procedure:
Glucosamine synthetase activity was examined in the presence of various phosphorylated sugars. Crude enzyme extracts was prepared from cells of 7017-18 grown in shake flasks for 24 hours with lactose induction.

Substrate in data set [2]: O=P(O)(O)OC[C@H]1OC(O)(CO)[C@@H](O)[C@@H]1O
In words: GlmS inhibition and Michaelis-Menten kinetics. The format is biochemical, Escherichia coli. The protocol:
Different glucosamine synthetase enzymes, including native B. subtillus GlmS, native E. coli GlmS and mutant E. coli GlmS, were studied in vitro. Cells of various E. coli strains were grown in the M9A medium, harvested, and frozen. Cells extracts were prepared and the glucosamine synthetases were characterized and compared.
Enzyme sensitivities to the reaction product glucosamine-6-P were examined. […] This figure highlights the dramatic difference between the wild type GlmS and these mutant GlmS strains.
The Mutants 2123-54 and the B. subtilis enzyme have higher Ki values (Table 6). Measured Ki constants for several of these mutants are 4 to 8 times the value for the native enzyme in strain 2123-12. From shake flask studies it is apparent that decreased sensitivity to glucosamine-6-P allows higher glucosamine levels to accumulate.
These values are slightly higher than those obtained with the native enzyme.

Here are results for four molecules from US8124381B2, “Process and materials for production of glucosamine and N-acetylglucosamine” (Arkion Life Sciences, priority 2002, dated 2012).

T1 sequence (P17169 2-609 A39T/R250C/G472S): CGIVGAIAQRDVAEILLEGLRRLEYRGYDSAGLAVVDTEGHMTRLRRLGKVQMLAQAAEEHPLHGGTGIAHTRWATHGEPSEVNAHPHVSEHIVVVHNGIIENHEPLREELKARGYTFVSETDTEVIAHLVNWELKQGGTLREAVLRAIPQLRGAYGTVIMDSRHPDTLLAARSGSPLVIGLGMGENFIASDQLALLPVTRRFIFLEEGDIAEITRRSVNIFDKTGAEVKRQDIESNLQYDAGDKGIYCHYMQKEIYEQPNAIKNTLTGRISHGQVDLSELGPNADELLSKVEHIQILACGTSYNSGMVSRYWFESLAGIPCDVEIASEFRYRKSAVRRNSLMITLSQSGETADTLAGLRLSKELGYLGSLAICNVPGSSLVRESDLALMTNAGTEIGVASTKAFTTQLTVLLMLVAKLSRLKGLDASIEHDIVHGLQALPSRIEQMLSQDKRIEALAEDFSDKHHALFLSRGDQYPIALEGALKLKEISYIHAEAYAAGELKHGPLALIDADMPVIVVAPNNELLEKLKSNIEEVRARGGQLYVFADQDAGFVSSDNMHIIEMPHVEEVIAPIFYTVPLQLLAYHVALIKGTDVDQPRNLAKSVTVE

`CC(=O)N[C@H]1C(OP(=O)(O)O)O[C@H](CO)[C@@H](O)[C@@H]1O` (some centres unmarked) [N-acetylglucosamine-1-P, N-acetylglucosamine-1-phosphate]: the activity at 10000 µM in data set [1] was 100%.

`N[C@H]1C(OP(=O)(O)O)O[C@H](CO)[C@@H](O)[C@@H]1O` (some centres unmarked) [glucosamine-1-P, glucosamine-1-phosphate]: in data set [1], the activity at 10000 µM came out at 79% and the “inhibition of glucosamine synthetase (in words)” value is on record as “inhibited”.

B1: E. coli GlmS mutant GlmS*124, SEQ ID NO:8 (Leu469Pro) (strain 2123-124) (Escherichia coli K-12; L469P) (protein)
chain: CGIVGAIAQRDVAEILLEGLRRLEYRGYDSAGLAVVDAEGHMTRLRRLGKVQMLAQAAEEHPLHGGTGIAHTRWATHGEPSEVNAHPHVSEHIVVVHNGIIENHEPLREELKARGYTFVSETDTEVIAHLVNWELKQGGTLREAVLRAIPQLRGAYGTVIMDSRHPDTLLAARSGSPLVIGLGMGENFIASDQLALLPVTRRFIFLEEGDIAEITRRSVNIFDKTGAEVKRQDIESNLQYDAGDKGIYRHYMQKEIYEQPNAIKNTLTGRISHGQVDLSELGPNADELLSKVEHIQILACGTSYNSGMVSRYWFESLAGIPCDVEIASEFRYRKSAVRRNSLMITLSQSGETADTLAGLRLSKELGYLGSLAICNVPGSSLVRESDLALMTNAGTEIGVASTKAFTTQLTVLLMLVAKLSRLKGLDASIEHDIVHGLQALPSRIEQMLSQDKRIEALAEDFSDKHHAPFLGRGDQYPIALEGALKLKEISYIHAEAYAAGELKHGPLALIDADMPVIVVAPNNELLEKLKSNIEEVRARGGQLYVFADQDAGFVSSDNMHIIEMPHVEEVIAPIFYTVPLQLLAYHVALIKGTDVDQPRNLAKSVTVE
notes: made in house; host or cells: E. coli strain 2123-124, cell extract
Take B1: the Km (commonly the concentration of substrate that gives half-maximal velocity) in data set [2] was found to be 1.10 mM.

B2: E. coli GlmS mutant GlmS*72, SEQ ID NO:14 (Glu15Lys, Asp387Val, Ser450Pro, Glu525Gly) (strain 2123-72) (Escherichia coli K-12; D387V/E15K/E525G/S450P) (protein)
chain: CGIVGAIAQRDVAKILLEGLRRLEYRGYDSAGLAVVDAEGHMTRLRRLGKVQMLAQAAEEHPLHGGTGIAHTRWATHGEPSEVNAHPHVSEHIVVVHNGIIENHEPLREELKARGYTFVSETDTEVIAHLVNWELKQGGTLREAVLRAIPQLRGAYGTVIMDSRHPDTLLAARSGSPLVIGLGMGENFIASDQLALLPVTRRFIFLEEGDIAEITRRSVNIFDKTGAEVKRQDIESNLQYDAGDKGIYRHYMQKEIYEQPNAIKNTLTGRISHGQVDLSELGPNADELLSKVEHIQILACGTSYNSGMVSRYWFESLAGIPCDVEIASEFRYRKSAVRRNSLMITLSQSGETADTLAGLRLSKELGYLGSLAICNVPGSSLVRESVLALMTNAGTEIGVASTKAFTTQLTVLLMLVAKLSRLKGLDASIEHDIVHGLQALPSRIEQMLPQDKRIEALAEDFSDKHHALFLGRGDQYPIALEGALKLKEISYIHAEAYAAGELKHGPLALIDADMPVIVVAPNNGLLEKLKSNIEEVRARGGQLYVFADQDAGFVSSDNMHIIEMPHVEEVIAPIFYTVPLQLLAYHVALIKGTDVDQPRNLAKSVTVE
notes: made in house; host or cells: E. coli strain 2123-72 (from 7101-17(DE3), plasmid with glmS*72 integrated), cell extract
B2: the Km in data set [2] worked out at 0.95 mM.
